Source: US10604554B2, “Double-acylated GLP-1 derivatives” (Novo Nordisk A/S, priority 2012, dated 2020)
Numbered stars: 1 amine (or outer) side, 2 acyl side, 3 side chain; on linkers, the order of the positions; unused ones are H or OH. Square brackets hold non-standard residues; d marks the D form. Side chains are listed from the residue outwards. Peptide text beside a SMILES is read from it. * marks the point of attachment. Decanoyl(10-(4-HOOC-PhO)) = O=C(O)c1ccc(OCCCCCCCCCC(=O)*)cc1; γGlu = O=C(O)[C@H](CCC(=O)[*:2])N[*:1]; εLys = N[C@@H](CCCCN[*:1])C(=O)[*:2]; AEEA = NCCOCCOCC(=O)O; Aib = CC(C)(N)C(=O)O

Columns and labels:
[1] = Pharmacokinetic (PK) study in rat; conditions: male, Sprague Dawley, in vivo, iv, 6 nmol/kg
[2] = molecular target: T1, human GLP-1 receptor (Homo sapiens, UniProt P43220); assay: In vitro potency (AlphaScreen cAMP, membranes); type: biochemical
T1 construct: expressed in transfected cells; host or cells: BHK cells, clone FCW467-12A/KZ10-1 (parent line BHKTS13), further transfected with CRE luciferase
Method: The purpose of this example is to test the activity, or potency, of the GLP-1 derivatives in vitro.
Purified plasma membranes from a stable transfected cell line, BHK467-12A (tk-ts13), expressing the human GLP-1 receptor were stimulated with the GLP-1 analogue or derivative in question, and the potency of cAMP production was measured using the AlphaScreen™ cAMP Assay Kit from Perkin Elmer Life Sciences. The basic principle of the AlphaScreen Assay is a competition between endogenous cAMP and exogenously added biotin-cAMP. The capture of cAMP is achieved by using a specific antibody conjugated to acceptor beads.
A stable transfected cell line and a high expressing clone were selected for screening. The cells were grown at 5% CO2 in DMEM, 5% FCS, 1% Pen/Strep (Penicillin/Streptomycin) and 0.5 mg/ml of the selection marker G418.
Cells at approximately 80% confluence were washed 2× with PBS and harvested with Versene (aqueous solution of the tetrasodium salt of ethylenediaminetetraacetic acid), centrifuged 5 min at 1000 rpm and the supernatant removed. The additional steps were all performed on ice. The cell pellet was homogenised by the Ultrathurax for 20-30 s in 10 ml of Buffer 1 (20 mM Na-HEPES, 10 mM EDTA, pH=7.4), centrifuged 15 min at 20,000 rpm and the pellet resuspended in 10 ml of Buffer 2 (20 mM Na-HEPES, 0.1 mM EDTA, pH=7.4). The suspension was homogenised for 20-30 s and centrifuged 15 min at 20,000 rpm. Suspension in Buffer 2, homogenisation and centrifugation was repeated once and the membranes were resuspended in Buffer 2. The protein concentration was determined and the membranes stored at −80° C. until use.
The assay was performed in flat-bottom 96-well plates (Costar cat. no:3693). The final volume per well was 50 μl.
AlphaScreen cAMP Assay Kit from Perkin Elmer Life Sciences (cat. No: 6760625M); containing Anti-cAMP Acceptor beads (10 U/μl), Streptavidin Donor beads (10 U/μl) and Biotinylated-cAMP (133 U/μl).
AlphaScreen Buffer, pH=7.4: 50 mM TRIS-HCl (Sigma, cat.no: T3253); 5 mM HEPES (Sigma, cat.no: H3375); 10 mM MgCl2, 6H2O (Merck, cat.no: 5833); 150 mM NaCl (Sigma, cat.no: S9625); 0.01% Tween (Merck, cat.no: 822184). The following was added to the AlphaScreen Buffer prior to use (final concentrations indicated): BSA (Sigma, cat. no. A7906): 0.1%; IBMX (Sigma, cat. no. 15879): 0.5 mM; ATP (Sigma, cat. no. A7699): 1 mM; GTP (Sigma, cat. no. G8877): 1 uM.
cAMP standard (dilution factor in assay=5): cAMP Solution: 5 μL of a 5 mM cAMP-stock+495 μL AlphaScreen Buffer.
Membranes were prepared from hGLP-1/BHK 467-12A cells with a concentration of 6 μg/well corresponding to 0.6 mg/ml (the amount of membranes used pr. well may vary)
“No membranes”: Acceptor Beads (15 μg/ml final) in AlphaScreen buffer
“6 μg/well membranes”: membranes+Acceptor Beads (15 μg/ml final) in AlphaScreen buffer
An aliquot (10 μl) of “No membranes” was added to the cAMP standard (per well in duplicate wells) and the positive and negative controls
An aliquot (10 μl) of “6 μg/well membranes” was added to GLP-1 and analogues (per well in duplicate or triplicate wells)
Pos. Control: 10 μl “no membranes”+10 μl AlphaScreen Buffer
Neg. Control: 10 μl “no membranes”+10 μl cAMP Stock Solution (50 μM)
As the beads are sensitive to direct light, any handling was in the dark (as dark as possible), or in green light. All dilutions were made on ice.
1. Make the AlphaScreen Buffer.
2. Dissolve and dilute the GLP-1/Analogues/cAMP standard in AlphaScreen Buffer.
3. Make the Donor Beads Solution by mixing streptavidin donor beads (2 units/well) and biotinylated cAMP (1.2 units/well) and incubate 20-30 min in the dark at room temperature
4. Add the cAMP/GLP-1/Analogues to the plate: 10 μl per well.
5. Prepare membrane/Acceptor Beads solution and add this to the plates: 10 μl per well.
6. Add the Donor Beads: 30 μl per well.
7. Wrap the plate in aluminum foil and incubate on the shaker for 3 hours (very slowly) at RT.

[3] = Pharmacokinetic (PK) study in minipig; conditions: male, Göttingen, in vivo, iv
Method: The purpose of this study is to determine the protraction in vivo of the GLP-1 derivatives after i.v. administration to minipigs, i.e. the prolongation of their time of action. This is done in a pharmacokinetic (PK) study, where the terminal half-life of the derivative in question is determined. By terminal half-life is generally meant the period of time it takes to halve a certain plasma concentration, measured after the initial distribution phase.
Study A: Male Göttingen minipigs were obtained from Ellegaard Göttingen Minipigs (Dalmose, Denmark) approximately 7-14 months of age and weighing from approximately 16-35 kg were used in the studies. The minipigs were housed individually and fed restrictedly once or twice daily with SDS minipig diet (Special Diets Services, Essex, UK). After at least 2 weeks of acclimatisation two permanent central venous catheters were implanted in vena cava caudalis or cranialis in each animal. The animals were allowed 1 week recovery after the surgery, and were then used for repeated pharmacokinetic studies with a suitable wash-out period between successive GLP-1 derivative dosings.
The animals were fasted for approximately 18 h before dosing and from 0 to 4 h after dosing, but had ad libitum access to water during the whole period.
The GLP-1 derivatives were dissolved in 50 mM sodium phosphate, 145 mM sodium chloride, 0.05% tween 80, pH 7.4 to a concentration of usually from 20-60 nmol/ml. […] Blood samples (for example 0.8 ml) were collected in EDTA buffer (8 mM) and then centrifuged at 4° C. and 1942 G for 10 minutes.
Study B: Male Göttingen minipigs were obtained from Ellegaard Göttingen Minipigs (Dalmose, Denmark) approximately 5 months of age and weighing from approximately 9 kg were used in the studies. The minipigs were housed in pens with straw as bedding, six together in each pen and fed restrictedly once or twice daily with Altromin 9023 minipig diet (Chr. Petersen A/S, DK-4100 Ringsted) or Standard SMP(E) minipig diet (Special Diet Services (SDS), UK). The pigs were used for repeated pharmacokinetic studies with a suitable wash-out period between successive GLP-1 derivative dosings.
The GLP-1 derivatives were dissolved in 50 mM sodium phosphate, 145 mM sodium chloride, 0.05% tween 80, pH 7.4 to a concentration of usually from 20-60 nmol/ml. Intravenous injections (the volume corresponding to usually 2 nmol/kg, for example 0.1 ml/kg) of the compounds were given as intravenous injections via a Venflon inserted in an ear vein, while they are placed unanaesthetised in a sling. The dose volume was 0.1 ml/kg, and blood was sampled at predefined time points for up till 17 days post dosing (samples was taken with syringe from a jugular vein).
Individual plasma concentration-time profiles were analyzed by a non-compartmental model in Phoenix WinNonLin ver. […] (Pharsight Inc., Mountain View, Calif., USA), and the resulting terminal half-lives (harmonic mean) determined.

T1 sequence (P43220 24-463): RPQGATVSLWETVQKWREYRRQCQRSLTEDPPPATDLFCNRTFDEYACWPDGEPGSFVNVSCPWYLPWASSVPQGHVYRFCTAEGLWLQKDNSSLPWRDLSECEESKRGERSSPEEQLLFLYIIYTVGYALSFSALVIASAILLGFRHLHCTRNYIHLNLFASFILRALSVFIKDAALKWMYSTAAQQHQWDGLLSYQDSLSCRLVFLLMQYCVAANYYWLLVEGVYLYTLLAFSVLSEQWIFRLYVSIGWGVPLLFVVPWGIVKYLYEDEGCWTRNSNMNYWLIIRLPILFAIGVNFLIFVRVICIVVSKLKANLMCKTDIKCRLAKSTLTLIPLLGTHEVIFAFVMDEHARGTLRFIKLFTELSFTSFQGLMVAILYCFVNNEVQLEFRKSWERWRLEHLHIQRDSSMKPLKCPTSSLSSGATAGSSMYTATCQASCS

| Structure (SMILES) | half-life [1] | EC50 [2] | half-life [3] |
| --- | --- | --- | --- |
| CC[C@H](C)[C@H](NC(=O)[C@H](Cc1ccccc1)NC(=O)[C@H](CCC(=O)O)NC(=O)[C@H](CCCCNC(=O)[C@@H](N)CCCCNC(=O)COCCOCCNC(=O)CC[C@H](NC(=O)CC[C@H](NC(=O)CCCCCCCCCCCOc1ccc(C(=O)O)cc1)C(=O)O)C(=O)O)NC(=O)[C@H](C)NC(=O)[C@H](C)NC(=O)[C@H](CCC(N)=O)NC(=O)CNC(=O)[C@H](CCC(=O)O)NC(=O)[C@H](CC(C)C)NC(=O)[C@H](Cc1ccc(O)cc1)NC(=O)[C@H](CO)NC(=O)[C@H](CO)NC(=O)[C@@H](NC(=O)[C@H](CC(=O)O)NC(=O)[C@H](CO)NC(=O)[C@@H](NC(=O)[C@H](Cc1ccccc1)NC(=O)[C@@H](NC(=O)CNC(=O)[C@H](CCC(=O)O)NC(=O)C(C)(C)NC(=O)[C@@H](N)Cc1c[nH]cn1)[C@@H](C)O)[C@@H](C)O)C(C)C)C(=O)N[C@@H](C)C(=O)N[C@@H](Cc1c[nH]c2ccccc12)C(=O)N[C@@H](CC(C)C)C(=O)N[C@H](C(=O)N[C@@H](CCCNC(=N)N)C(=O)NCC(=O)N[C@@H](CCCNC(=N)N)C(=O)N[C@@H](CCCCNC(=O)[C@@H](N)CCCCNC(=O)COCCOCCNC(=O)CC[C@H](NC(=O)CC[C@H](NC(=O)CCCCCCCCCCCOc1ccc(C(=O)O)cc1)C(=O)O)C(=O)O)C(=O)O)C(C)C [Example 15, N^ε26-[(2S)-2-amino-6-[[2-[2-[2-[[(4S)-4-carboxy-4-[[(4S)-4-carboxy-4-[12-(4-carboxyphenoxy)dodecanoylamino]butanoyl]amino]butanoyl]amino]ethoxy]ethoxy]acetyl]amino]hexanoyl], N^ε37-[(2S)-2-amino-6-[[2-[2-[2-[[(4S)-4-carboxy-4-[[(4S)-4-carboxy-4-[12-(4-carboxyphenoxy)dodecanoylamino]butanoyl]amino]butanoyl]amino]ethoxy]ethoxy]acetyl]amino]hexanoyl]-[Aib^8,Arg^34,Lys^37]-GLP-1-(7-37)-peptide] | 20 h | 155 pM | – |
| CC[C@H](C)[C@H](NC(=O)[C@H](Cc1ccccc1)NC(=O)[C@H](CCC(=O)O)NC(=O)[C@H](CCCCNC(=O)[C@@H](N)CCCCNC(=O)COCCOCCNC(=O)COCCOCCNC(=O)CC[C@H](NC(=O)CCCCCCCCCCCOc1ccc(C(=O)O)cc1)C(=O)O)NC(=O)[C@H](C)NC(=O)[C@H](C)NC(=O)[C@H](CCC(N)=O)NC(=O)CNC(=O)[C@H](CCC(=O)O)NC(=O)[C@H](CC(C)C)NC(=O)[C@H](Cc1ccc(O)cc1)NC(=O)[C@H](CO)NC(=O)[C@H](CO)NC(=O)[C@@H](NC(=O)[C@H](CC(=O)O)NC(=O)[C@H](CO)NC(=O)[C@@H](NC(=O)[C@H](Cc1ccccc1)NC(=O)[C@@H](NC(=O)CNC(=O)[C@H](CCC(=O)O)NC(=O)C(C)(C)NC(=O)[C@@H](N)Cc1c[nH]cn1)[C@@H](C)O)[C@@H](C)O)C(C)C)C(=O)N[C@@H](C)C(=O)N[C@@H](Cc1c[nH]c2ccccc12)C(=O)N[C@@H](CC(C)C)C(=O)N[C@H](C(=O)N[C@@H](CCCNC(=N)N)C(=O)NCC(=O)N[C@@H](CCCNC(=N)N)C(=O)N[C@@H](CCCCNC(=O)[C@@H](N)CCCCNC(=O)COCCOCCNC(=O)COCCOCCNC(=O)CC[C@H](NC(=O)CCCCCCCCCCCOc1ccc(C(=O)O)cc1)C(=O)O)C(=O)O)C(C)C [Example 14, N^ε26-[(2S)-2-amino-6-[[2-[2-[2-[[2-[2-[2-[[(4S)-4-carboxy-4-[12-(4-carboxyphenoxy)dodecanoylamino]butanoyl]amino]ethoxy]ethoxy]acetyl]amino]ethoxy]ethoxy]acetyl]amino]hexanoyl], N^ε37-[(2S)-2-amino-6-[[2-[2-[2-[[2-[2-[2-[[(4S)-4-carboxy-4-[12-(4-carboxyphenoxy)dodecanoylamino]butanoyl]amino]ethoxy]ethoxy]acetyl]amino]ethoxy]ethoxy]acetyl]amino]hexanoyl]-[Aib^8,Arg^34, Lys^37]-GLP-1-(7-37)-peptide] | 19 h | 280 pM | 88 h |
| CC[C@H](C)[C@H](NC(=O)[C@H](Cc1ccccc1)NC(=O)[C@H](CCC(=O)O)NC(=O)[C@H](CCCCNC(=O)[C@@H](N)CCCCNC(=O)COCCOCCNC(=O)COCCOCCNC(=O)CC[C@H](NC(=O)CCCCCCCCCOc1ccc(C(=O)O)cc1)C(=O)O)NC(=O)[C@H](C)NC(=O)[C@H](C)NC(=O)[C@H](CCC(N)=O)NC(=O)[C@H](CCC(=O)O)NC(=O)[C@H](CCC(=O)O)NC(=O)[C@H](CC(C)C)NC(=O)[C@H](Cc1ccc(O)cc1)NC(=O)[C@H](CO)NC(=O)[C@H](CO)NC(=O)[C@@H](NC(=O)[C@H](CC(=O)O)NC(=O)[C@H](CO)NC(=O)[C@@H](NC(=O)[C@H](Cc1ccccc1)NC(=O)[C@@H](NC(=O)CNC(=O)[C@H](CCC(=O)O)NC(=O)C(C)(C)NC(=O)[C@@H](N)Cc1c[nH]cn1)[C@@H](C)O)[C@@H](C)O)C(C)C)C(=O)N[C@@H](C)C(=O)N[C@@H](Cc1c[nH]c2ccccc12)C(=O)N[C@@H](CC(C)C)C(=O)N[C@H](C(=O)N[C@@H](CCC(N)=O)C(=O)NCC(=O)N[C@@H](CCCNC(=N)N)C(=O)N[C@@H](CCCCNC(=O)[C@@H](N)CCCCNC(=O)COCCOCCNC(=O)COCCOCCNC(=O)CC[C@H](NC(=O)CCCCCCCCCOc1ccc(C(=O)O)cc1)C(=O)O)C(=O)O)C(C)C [Example 18] (H-H[Aib]EGTFTSDVSSYLEEQAAK([εLys-AEEA-AEEA-γGlu-Decanoyl(10-(4-HOOC-PhO))])EFIAWLVQGRK([εLys-AEEA-AEEA-γGlu-Decanoyl(10-(4-HOOC-PhO))])-OH; N-terminus and C-terminus assumed) | 20 h | 75 pM | 47 h |
